Patent US8912146B2, “Derivatives of APF and methods of use” (University of Maryland, Baltimore, priority 2008, dated 2014)
Entries after “also recorded” stand apart in the source; their conditions may differ.

Legend:
Type in all cases: cell-based, human
[1] = test system: APF activity in normal bladder epithelial cells; assay: Inhibition of APF antiproliferative activity in as-APF-treated normal bladder epithelial cells (3H-thymidine); conditions: pretreatment, then as-APF (0.25 or 0.025 μM; 25 nM in FIG. 54), normal and/or IC/PBS bladder cells
Protocol: Explanted cells grown from the biopsies of normal controls were plated on Day 0 at 1.5×10^4 cells/well onto a 96-well cell culture plate (VWR 29442-054), in 150 μL/well MEM containing 10% heat-inactivated FBS, 1% antibiotic/antimycotic solution, and 1% L-glutamine (all from Sigma), serum starved on Day 1, and treated with varying concentrations of D-pipecolic acid diluted in phosphate buffered saline (PBS) for 2 hours at 37° C. in a 5% CO2 atmosphere. […] The cell contents were then harvested and methanol-fixed onto glass fiber filter paper, and the amount of radioactivity incorporated was determined. Significance of the difference in mean values between groups was determined by an analysis of variance.
IC/PBS cells were incubated with varying concentrations of two derivatives shown to inhibit APF activity in normal bladder cells—GalGalNAc-TV(D-pipecolic acid) AAVVVA (SEQ ID NO:14) and GalGalNAc-TV (D-proline)AAVVVA (SEQ ID NO:27). Cell proliferation was determined by ^3H-thymidine incorporation; gene expression by quantitative RT-PCR; specific protein expression by Western blot analysis; tight junction formation by confocal immunofluorescence microscopy; and paracellular permeability by ^14C-mannitol and ^3H-inulin flux between confluent cells on Transwell plates. Significance of the difference in mean values between groups was determined by an analysis of variance for each assay. […]

[2] = test system: ZO-1, occludin, claudin 1, 4, 8, 12 mRNA in IC/PBS cells; assay: qRT-PCR of tight junction protein mRNA in IC/PBS cells; conditions: 16 or 30 day treatment
Protocol: Total RNA was extracted from IC/PBS and normal control epithelial cell explants using the RNEasy Plus Mini Kit (Qiagen) according to the manufacturer's protocol. Quantitative real time RT-PCR for tight junction gene expression was performed using Quantitect Primers (Qiagen), SYBR Green RT-PCR kit reagents (Qiagen), and a Roche 480 Light-Cycler. Samples were tested in triplicate runs, and specific mRNA levels quantified and compared to mRNA levels for β-actin using LightCycler 480 real-time PCR analysis software (version 1.5).
For the permeability assay, the percentage of total counts in the basal medium was determined in four experiments (using different IC/PBS cell donors), and expressed as mean±standard deviation. Crossover point analysis was performed for qRT-PCR data, and expression of each gene was quantified relative to β-actin; this value was expressed as mean±standard error of the mean for duplicate runs performed on two separate occasions. ^3H-thymidine incorporation was determined in triplicate on two separate occasions, and the CPM expressed as mean±standard deviation.

IC/PBS cell monolayers = assay: Paracellular permeability (14C-mannitol and 3H-inulin flux, Transwell) of IC/PBS cell monolayers; conditions: 16 or 30 days treatment
Protocol: Flux assays were performed using 12-mm Transwell culture plates (Corning Incorporated, Corning, N.Y.), as previously described (Keay et al., 2000). Cells were plated at 4×10^5 cells/cm^2 on the insert and grown in DMEM-F12 medium containing 10% heat-inactivated FBS, 1% antibiotic solution, 1% L-glutamine, 0.25 units/ml insulin (all from Sigma, St. Louis, Mo.), and 5 ng/ml hEGF (R & D Systems, Minneapolis, Minn.) to establish tight monolayers. On day 2, the medium was changed to MEM (GIBCO/Invitrogen) containing 1% antibiotic/antimycotic solution and 1% L-glutamine (Sigma).
Two different membrane impermeable molecules, [14C]-mannitol (molecular weight: 184 Daltons) and [^3H]-inulin (molecular weight: 5,200 Daltons), served as paracellular tracers. […] Flux assays were performed at 37° C.; basal medium was collected at 0.5-6 hrs after addition of [^14C]-mannitol or [3H]-inulin, and the amount of radioactivity determined using a Beckman LS 5000 scintillation counter. Results were expressed as percentage of total counts for each tracer.
For the permeability assay, the percentage of total counts in the basal medium was determined in four experiments (using different IC/PBS cell donors), and expressed as mean±standard deviation. […]

What does the source list for CC(=O)NC1C(O[C@@H]2OC(CO)[C@H](O)C(O)C2O)[C@@H](O)C(CO)O[C@@H]1OC(C)[C@H](N)C(=O)NC(C(=O)N1CCCC1C(=O)NC(C)C(=O)N[C@@H](C)C(=O)NC(C(=O)N[C@H](C(=O)NC(C(=O)N[C@@H](C)C(=O)O)C(C)C)C(C)C)C(C)C)C(C)C (stereo in doubt) [Derivative 8, GalGalNAc-TV(D-proline)AAVVVA]?
inhibition of APF antiproliferative activity [1]: blocked APF antiproliferative activity; inhibition of APF antiproliferative activity ([1]; listed as D-proline APF): inhibit the effect of as-APF on normal bladder epithelial cell proliferation; also recorded: inhibited this activity in nanomolar concentrations in a dose-dependent manner; tight junction protein (ZO-1, occludin, claudins) mRNA expression in IC/PBS cells ([2]; listed as D-proline): significantly (p<0.05) stimulate mRNA expression; tight junction protein (ZO-1, occludin, claudins) mRNA expression in IC/PBS cells ([2]; listed as D-proline APF): stimulation of tight junction protein expression; tight junction protein (ZO-1, occludin, claudins) mRNA expression in IC/PBS cells ([2]; listed as GalGalNAc-TV-(D-proline)-AAVVVA): significantly increased; paracellular permeability of IC/PBS cells (14C-mannitol, 3H-inulin) (IC/PBS cell monolayers): significantly decrease permeability; paracellular permeability of IC/PBS cells (14C-mannitol, 3H-inulin) (IC/PBS cell monolayers; listed as D-proline APF): normalized; also recorded: significantly decreased paracellular permeability
